One data set concerns the target Bacterial 70S ribosome. Kind of data set: Inhibition of Escherichia coli ribosome-mediated translation after 60 mins by transcription/translation-coupled luciferase reporter gene assay. In kind it is subcellular. Background: Reporter assays use an easily measured gene product as a stand-in for the process of interest.
Data set [1] relates to Staphylococcus aureus. Kind of data set: Antibacterial activity against Staphylococcus aureus ATCC 101 29213. In kind it is functional.
Data set [2] concerns Staphylococcus aureus. Kind of data set: Antibacterial activity against tetracycline- and methicillin-resistant Staphylococcus aureus 161. In kind it is functional.
Data set [3] relates to Enterococcus faecalis. The experiment in a line: Antibacterial activity against Enterococcus faecalis ATCC 103 29212. In kind it is functional.
The subject of data set [4] is Enterococcus faecalis. Kind of data set: Antibacterial activity against tetracycline-resistant Enterococcus faecalis 159. In kind it is functional.
For data set [5], the system named is Streptococcus pneumoniae. Kind of data set: microbe, parasite or virus in culture. In kind it is functional. As to conditions: ATCC 106 49619.
Description: Antibacterial activity against Streptococcus pneumoniae ATCC 106 49619
The test system of data set [6] is Escherichia coli. Kind of data set: Antibacterial activity against Escherichia coli ATCC 107 25922. In kind it is functional.
Data set [7] deals with Escherichia coli. Kind of data set: Antibacterial activity against tetracycline-resistant Escherichia coli 155. In kind it is functional.
The subject of data set [8] is Acinetobacter baumannii. The experiment in a line: Antibacterial activity against Acinetobacter baumannii ATCC 19606 110. In kind it is functional.
The subject of a further data set is Pseudomonas aeruginosa. Kind of data set: Antibacterial activity against Pseudomonas aeruginosa ATCC 111 27853. In kind it is functional.
In a further data set the test system is Enterobacter cloacae. Kind of data set: Antibacterial activity against Enterobacter cloacae ATCC 108 13047. In kind it is functional.
In data set [9] the test system is Klebsiella pneumoniae. The experiment in a line: Antibacterial activity against Klebsiella pneumoniae ATCC 109 13883. In kind it is functional.
Data set [10] relates to Klebsiella pneumoniae. The experiment in a line: Antibacterial activity against tetracycline-resistant Klebsiella pneumoniae 153. In kind it is functional.
A further data set relates to Rattus norvegicus. Kind of data set: (§1) Clearance in Sprague-Dawley rat at 1 mg/kg, iv by LC/MS-MS analysis. In kind it is ADME, organism-based. On the set-up: dose 1 mg/kg, route intravenous. As to conditions: in vivo.
The nature of data set [11]: AUClast in Sprague-Dawley rat at 1 mg/kg, iv by LC/MS-MS analysis. As to conditions: plasma. On the set-up: time 0 - last, dose 1 mg/kg, route intravenous. In kind it is ADME, organism-based.
A short description of data set [12]: AUClast in Sprague-Dawley rat at 10 mg/kg, po by LC/MS-MS analysis. In kind it is ADME, organism-based. On the set-up: dose 10 mg/kg, route oral, time 0 - last. As to conditions: plasma.
The nature of data set [13]: Oral bioavailability in Sprague-Dawley rat at 10 mg/kg by LC/MS-MS analysis. In kind it is ADME, organism-based. As to conditions: in vivo.
Data set [14] in a line: Oral bioavailability in human. In kind it is ADME, organism-based. As to conditions: in vivo.
For data set [15], the system named is Escherichia coli. The experiment in a line: Ratio of tetracycline IC50 to compound IC50 for Escherichia coli ribosome-mediated translation. In kind it is subcellular.
For data set [16], the system named is Staphylococcus aureus. Kind of data set: microbe, parasite or virus in culture. In kind it is functional. As to conditions: 158.
The test system of data set [17] is Streptococcus pneumoniae. The experiment in a line: Antibacterial activity against tetracycline-resistant Streptococcus pneumoniae 160. In kind it is functional.
In data set [18] the test system is Staphylococcus aureus. Kind of data set: Ratio of tigecycline MIC to compound MIC for Staphylococcus aureus ATCC 101 29213. In kind it is functional.
Data set [19] has as its system Enterococcus faecalis. The experiment in a line: Ratio of tigecycline MIC to compound MIC for Enterococcus faecalis ATCC 103 29212. In kind it is functional.
In data set [20] the test system is Escherichia coli. The experiment in a line: Ratio of tigecycline MIC to compound MIC for Escherichia coli ATCC 107 25922. In kind it is functional.
In data set [21] the test system is Acinetobacter baumannii. Kind of data set: Ratio of tigecycline MIC to compound MIC for Acinetobacter baumannii ATCC 19606 110. In kind it is functional.
Data set [22] relates to Escherichia coli. Kind of data set: Antibacterial activity against tetracycline-resistant Escherichia coli 133 infected in iv dosed CD-1 mouse assessed as protection from infection administered 1 hr post infection measured after 24 hrs. As to conditions: Escherichia coli, 133, iv; read-out: PD50. In kind it is functional.
Data set [23] concerns Escherichia coli. The experiment in a line: Antibacterial activity against tetracycline-resistant Escherichia coli 133 infected in iv dosed CD-1 mouse assessed as reduction in bacterial burden administered 1 hr post infection measured after 24 hrs. In kind it is functional.
In data set [24] the test system is Staphylococcus aureus. The experiment in a line: Antibacterial activity against tetracycline-resistant Staphylococcus aureus 191 infected in iv dosed CD-1 mouse assessed as dose required for 1 log bacterial burden reduction administered 1.5 hr post infection measured after 24 hrs. In kind it is functional.
For data set [25], the system named is Staphylococcus aureus. Kind of data set: Antibacterial activity against tetracycline-resistant Staphylococcus aureus 191 infected in iv dosed CD-1 mouse assessed as dose required for 3 log bacterial burden reduction administered 1.5 hr post infection measured after 24 hrs. In kind it is functional.
In data set [26] the test system is Staphylococcus aureus. Kind of data set: Antibacterial activity against tetracycline-resistant Staphylococcus aureus 191 infected in iv dosed CD-1 mouse assessed as reduction in bacterial burden administered 1.5 hr post infection measured after 24 hrs. In kind it is functional.
Data set [27] is described as follows: as §1. In kind it is ADME, organism-based. On the set-up: dose 1 mg/kg, route intravenous. As to conditions: Sprague-Dawley, in vivo.
The nature of data set [28]: Apparent volume of distribution in Sprague-Dawley rat at 1 mg/kg, iv by LC/MS-MS analysis. As to conditions: in vivo.
Data set [29] is described as follows: Elimination half life in Sprague-Dawley rat at 1 mg/kg, iv by LC/MS-MS analysis. In kind it is ADME, organism-based. The arrangement: dose 1 mg/kg, route intravenous. As to conditions: in vivo, read-out: beta t1/2 (converted).
A short description of data set [30]: Elimination half life in Sprague-Dawley rat at 10 mg/kg, po by LC/MS-MS analysis. In kind it is ADME, organism-based. On the set-up: dose 10 mg/kg, route oral. As to conditions: in vivo, read-out: beta t1/2 (converted).

Converted amounts (≈) assume the structure as drawn.

Take `CN(C)[C@@H]1C(O)=C(C(N)=O)C(=O)[C@@]2(O)C(O)=C3C(=O)c4c(O)cccc4[C@@](C)(O)[C@H]3C[C@@H]12` [TETRACYCLINE]: at Bacterial 70S ribosome, half-maximal inhibition (IC50) was put at 4.58 µM. The MIC against Staphylococcus aureus [1] is 0.125 µg/mL (≈ 0.281 µM); with Staphylococcus aureus [2], 64 µg/mL (≈ 144 µM); with Enterococcus faecalis [3] it was 16 µg/mL (≈ 36 µM); against Enterococcus faecalis [4], 64 µg/mL (≈ 144 µM); in the data set on Streptococcus pneumoniae [5], 0.25 µg/mL (≈ 0.563 µM); against Escherichia coli [6], greater than 1 µg/mL. Moreover, the MIC is greater than 64 µg/mL in the data set on Escherichia coli [7]; 1 µg/mL (≈ 2.25 µM) in the data set with Acinetobacter baumannii [8]; 16 µg/mL (≈ 36 µM) against Pseudomonas aeruginosa; 1 µg/mL (≈ 2.25 µM) with Enterobacter cloacae; 2 µg/mL (≈ 4.5 µM) against Klebsiella pneumoniae [9]; greater than 64 µg/mL against Klebsiella pneumoniae [10]. The CL in the data set with Rattus norvegicus amounted to 9.03 mL/min/kg. The AUC(0-t) (usually exposure summed from dosing to a finite time, without extrapolation to infinity) was 3080 ng·h/mL in [11] and 4540 ng·h/mL in data set [12]. For the same compound, the bioavailability (commonly the share of a dose that reaches the circulation, judged against a reference dose that is usually intravenous) in [13] worked out at 14.9%; in [14], 60%.
Take `CN(C)[C@@H]1C(O)=C(C(N)=O)C(=O)[C@@]2(O)C(O)=C3C(=O)c4c(O)c(NC(=O)CN5CCCC5)cc(F)c4C[C@H]3C[C@@H]12` [ERAVACYCLINE]: in the data set on Escherichia coli [15], the Ratio IC50 turned out to be 7. Also, at Bacterial 70S ribosome, the IC50 (usually the point on the concentration scale where inhibition reaches its midpoint) is 0.62 µM. Moreover, the MIC in the data set on Staphylococcus aureus [1], in the data set on Staphylococcus aureus [2], with Staphylococcus aureus [16], in the data set on Enterococcus faecalis [3], against Enterococcus faecalis [4] and against Streptococcus pneumoniae [5] was 0.0156 µg/mL (≈ 0.0279 µM) each time. For the same compound, the MIC with Streptococcus pneumoniae [17] came to 0.0156 µg/mL (≈ 0.0279 µM); against Escherichia coli [6], 0.0156 µg/mL (≈ 0.0279 µM); in the data set with Escherichia coli [7], 1 µg/mL (≈ 1.79 µM); in the data set with Acinetobacter baumannii [8] it was 0.0312 µg/mL (≈ 0.0559 µM); in the data set on Pseudomonas aeruginosa it was 8 µg/mL (≈ 14.3 µM); against Enterobacter cloacae it was 0.125 µg/mL (≈ 0.224 µM). Also, the MIC against Klebsiella pneumoniae [9] was determined as 0.125 µg/mL (≈ 0.224 µM); with Klebsiella pneumoniae [10], 0.5 µg/mL (≈ 0.895 µM); with Escherichia coli [23], 0.125 µg/mL (≈ 0.224 µM); with Staphylococcus aureus [26], 0.25 µg/mL (≈ 0.448 µM). Moreover, the Ratio in the data set with Staphylococcus aureus [18], in the data set with Enterococcus faecalis [19], in the data set with Escherichia coli [20] and in the data set on Acinetobacter baumannii [21] was 4 in each case. In addition, the ED50 with Escherichia coli [22] turned out to be 1.3 mg/kg. The Activity was found to be 0.6 mg/kg with Staphylococcus aureus [24] and 3 mg/kg with Staphylococcus aureus [25]. The clearance (in general, a measure of how efficiently the substance is removed, as volume per time) in data set [27] is 9.4 mL/min/kg. For the same compound, in data set [28], the Vd was 3.2 L/kg. Also, the half-life in data set [29] was 4 h; in data set [30], 6.9 h. The AUC(0-t) in [11] was 1770 ng·h/mL; in data set [12] it was 295 ng·h/mL. In [13], this compound gave a bioavailability of 1.7%.
As for `CN(C)c1cc(NC(=O)CNC(C)(C)C)c(O)c2c1C[C@H]1C[C@H]3[C@H](N(C)C)C(O)=C(C(N)=O)C(=O)[C@@]3(O)C(O)=C1C2=O` [TIGECYCLINE], the MIC in the data set on Staphylococcus aureus [1] is 0.0625 µg/mL (≈ 0.107 µM); with Staphylococcus aureus [2], 0.125 µg/mL (≈ 0.213 µM); with Staphylococcus aureus [16] it was 0.125 µg/mL (≈ 0.213 µM); against Enterococcus faecalis [3] it was 0.0625 µg/mL (≈ 0.107 µM); against Enterococcus faecalis [4], 0.0625 µg/mL (≈ 0.107 µM); with Streptococcus pneumoniae [5], 0.0156 µg/mL (≈ 0.0266 µM). The MIC in the data set on Streptococcus pneumoniae [17] turned out to be 0.0156 µg/mL (≈ 0.0266 µM); with Escherichia coli [6], 0.125 µg/mL (≈ 0.213 µM); in the data set on Escherichia coli [7] it was 1 µg/mL (≈ 1.71 µM); against Acinetobacter baumannii [8], 0.5 µg/mL (≈ 0.854 µM); with Pseudomonas aeruginosa it was 16 µg/mL (≈ 27.3 µM); against Enterobacter cloacae it was 0.25 µg/mL (≈ 0.427 µM). Besides, the MIC against Klebsiella pneumoniae [9] turned out to be 0.25 µg/mL (≈ 0.427 µM); against Klebsiella pneumoniae [10], 1 µg/mL (≈ 1.71 µM); in the data set with Escherichia coli [23], 0.125 µg/mL (≈ 0.213 µM); in the data set with Staphylococcus aureus [26] it was 0.25 µg/mL (≈ 0.427 µM). Also, in the data set with Escherichia coli [22], the ED50 was determined as 3.5 mg/kg. For the same compound, the figures for the Activity in the data set on Staphylococcus aureus [24] and with Staphylococcus aureus [25] were 3 mg/kg and 17.3 mg/kg, respectively. In [30], the half-life is 3.98 h. The AUC(0-t) came to 1050 ng·h/mL in [11] and 107 ng·h/mL in data set [12]. The compound further displayed a bioavailability in data set [13] of 1%.
Take `CN[C@H](CC(C)C)C(=O)N[C@H]1C(=O)N[C@@H](CC(N)=O)C(=O)N[C@H]2C(=O)N[C@H]3C(=O)N[C@H](C(=O)N[C@H](C(=O)O)c4cc(O)cc(O)c4-c4cc3ccc4O)[C@H](O)c3ccc(c(Cl)c3)Oc3cc2cc(c3O[C@@H]2O[C@H](CO)[C@@H](O)[C@H](O)[C@H]2O[C@H]2C[C@](C)(N)[C@H](O)[C@H](C)O2)Oc2ccc(cc2Cl)[C@H]1O` [VANCOMYCIN]: the Activity in the data set on Staphylococcus aureus [24] was found to be 0.75 mg/kg; with Staphylococcus aureus [25], 10 mg/kg.

Values taken from ChEMBL document CHEMBL1949621, “Fluorocyclines. 1. 7-fluoro-9-pyrrolidinoacetamido-6-demethyl-6-deoxytetracycline: a potent, broad spectrum antibacterial agent” (J Med Chem, 2012).
